Experimental data as given in PubChem BioAssay AID256 (DTP/NCI, 2004).
Inconclusive results and toxic doses are left out. The calls were made as follows: active = survival T/C of 150% or more; inactive = T/C below 125% in these data.

System: CD2F1 mice, L1210 leukemia ip, survival T/C
Assay: NCI In Vivo Anticancer Drug Screen. Data for tumor model L1210 Leukemia (intraperitoneal) in CD2F1 (CDF1) mice
Conditions: higher = longer survival
Summary of the method: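 Activity against a transplanted murine tumor was judged by comparing the compound group with a vehicle group. The outcome in the treated animals was divided by that in the controls.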

[1] = endpoint: mean survival time, dose: 100.0 mg/kg/injection, schedule: Q01DX009 (ip), vehicle: saline with Tween-80
[2] = endpoint: mean survival time, dose: 200.0 mg/kg/injection, schedule: Q01DX009 (ip), vehicle: saline with Tween-80
[3] = endpoint: mean survival time, dose: 400.0 mg/kg/injection, schedule: Q01DX009 (ip), vehicle: saline with Tween-80
[4] = endpoint: mean survival time, dose: 100.0 mg/kg/injection, schedule: Q01DX001 (ip), vehicle: saline
[5] = endpoint: mean survival time, dose: 200.0 mg/kg/injection, schedule: Q01DX001 (ip), vehicle: saline
[6] = endpoint: mean survival time, dose: 400.0 mg/kg/injection, schedule: Q01DX001 (ip), vehicle: saline
[7] = endpoint: mean survival time, dose: 100.0 mg/kg/injection, schedule: Q04DX003 (ip), vehicle: saline with Tween-80
[8] = endpoint: mean survival time, dose: 200.0 mg/kg/injection, schedule: Q04DX003 (ip), vehicle: saline with Tween-80
[9] = endpoint: mean survival time, dose: 400.0 mg/kg/injection, schedule: Q04DX003 (ip), vehicle: saline with Tween-80
[10] = endpoint: mean survival time, dose: 50.0 mg/kg/injection, schedule: Q01DX009 (ip), vehicle: saline with Tween-80

Measured: T/C

COC(=O)C(I)C(OC)c1ccccc1 (stereo unspecified)
inactive: [1] 107 % of control | [2] 100 % of control | [3] 97 % of control

CC(C)NC(=O)NC(C)C
inactive: [4] 107 % of control | [5] 102 % of control | [6] 100 % of control

CCCCCOc1ccccc1Cl
inactive: endpoint: mean survival time, dose: 100.0 mg/kg/injection, schedule: Q04DX002 (ip), vehicle: saline with Tween-80 101 % of control | endpoint: mean survival time, dose: 200.0 mg/kg/injection, schedule: Q04DX002 (ip), vehicle: saline with Tween-80 98 % of control

O=C(C1CC=C2c3ccccc3CCC2C1C(=O)N1CCCCC1)N1CCCCC1 (stereo unspecified)
inactive: endpoint: mean survival time, dose: 75.0 mg/kg/injection, schedule: Q01DX001 (ip), vehicle: saline 104 % of control | endpoint: mean survival time, dose: 150.0 mg/kg/injection, schedule: Q01DX001 (ip), vehicle: saline 98 % of control | endpoint: mean survival time, dose: 300.0 mg/kg/injection, schedule: Q01DX001 (ip), vehicle: saline 107 % of control

COc1ccccc1/C=N/NC(=O)c1ccccc1
inactive: endpoint: mean survival time, dose: 100.0 mg/kg/injection, schedule: Q01DX009 (ip), vehicle: Klucel (hydroxypropylcellulose) (HPC) 102 % of control | endpoint: mean survival time, dose: 100.0 mg/kg/injection, schedule: Q04DX003 (ip), vehicle: Klucel (hydroxypropylcellulose) (HPC) 91 % of control | endpoint: mean survival time, dose: 200.0 mg/kg/injection, schedule: Q01DX009 (ip), vehicle: Klucel (hydroxypropylcellulose) (HPC) 96 % of control | endpoint: mean survival time, dose: 200.0 mg/kg/injection, schedule: Q04DX003 (ip), vehicle: Klucel (hydroxypropylcellulose) (HPC) 96 % of control | endpoint: mean survival time, dose: 400.0 mg/kg/injection, schedule: Q01DX009 (ip), vehicle: Klucel (hydroxypropylcellulose) (HPC) 108 % of control | endpoint: mean survival time, dose: 400.0 mg/kg/injection, schedule: Q04DX003 (ip), vehicle: Klucel (hydroxypropylcellulose) (HPC) 94 % of control

COc1ccc(-c2nc3cc(Cl)ccc3c(=O)o2)cc1
inactive: [7] 88 % of control | [8] 91 % of control | [9] 88 % of control

Cc1c(C)c([N+](=O)[O-])c(Br)c(C)c1[N+](=O)[O-]
inactive: [1] 103 % of control | [7] 95 % of control | [2] 97 % of control | [8] 88 % of control | [3] 101 % of control | [9] 87 % of control

OC1c2ccccc2CC1N1CCCCC1 (stereo unspecified)
inactive: endpoint: mean survival time, dose: 25.0 mg/kg/injection, schedule: Q01DX009 (ip), vehicle: saline with Tween-80 95 % of control | [10] 101 % of control | [1] 98 % of control

NCCCN1CCN(CCCN)CC1
inactive: endpoint: mean survival time, dose: 100.0 mg/kg/injection, schedule: Q04DX002 (ip), vehicle: saline 98 % of control | endpoint: mean survival time, dose: 200.0 mg/kg/injection, schedule: Q04DX002 (ip), vehicle: saline 91 % of control | endpoint: mean survival time, dose: 400.0 mg/kg/injection, schedule: Q04DX002 (ip), vehicle: saline 98 % of control

CCOC(=O)C(OCC)P(=O)(OCC)OCC (stereo unspecified)
inactive: endpoint: mean survival time, dose: 25.0 mg/kg/injection, schedule: Q01DX005 (ip), vehicle: water 101 % of control | endpoint: mean survival time, dose: 50.0 mg/kg/injection, schedule: Q01DX005 (ip), vehicle: water 101 % of control | endpoint: mean survival time, dose: 100.0 mg/kg/injection, schedule: Q01DX005 (ip), vehicle: water 101 % of control | endpoint: mean survival time, dose: 200.0 mg/kg/injection, schedule: Q01DX005 (ip), vehicle: water 101 % of control | endpoint: mean survival time, dose: 400.0 mg/kg/injection, schedule: Q01DX005 (ip), vehicle: water 97 % of control

CCCCCCCCC(=O)NCCCNC(=O)CCCCCCCC
inactive: endpoint: mean survival time, dose: 75.0 mg/kg/injection, schedule: Q04DX003 (ip), vehicle: saline 88 % of control | endpoint: mean survival time, dose: 150.0 mg/kg/injection, schedule: Q04DX003 (ip), vehicle: saline 88 % of control | endpoint: mean survival time, dose: 300.0 mg/kg/injection, schedule: Q04DX003 (ip), vehicle: saline 103 % of control

CN1C(=O)C=CC1=O
inactive: endpoint: mean survival time, dose: 0.5 mg/kg/injection, schedule: Q01DX009 (ip), vehicle: saline 101 % of control | endpoint: mean survival time, dose: 1.0 mg/kg/injection, schedule: Q01DX009 (ip), vehicle: saline 95 % of control | endpoint: mean survival time, dose: 2.0 mg/kg/injection, schedule: Q01DX009 (ip), vehicle: saline 93 % of control | endpoint: mean survival time, dose: 4.0 mg/kg/injection, schedule: Q01DX009 (ip), vehicle: saline 95 % of control

BrCCC1(CCBr)CCCCC1
inactive: endpoint: median survival time, dose: 50.0 mg/kg/injection, schedule: Q01DX009 (ip), vehicle: other 104 % of control | endpoint: median survival time, dose: 200.0 mg/kg/injection, schedule: Q01DX009 (ip), vehicle: other 101 % of control | endpoint: median survival time, dose: 400.0 mg/kg/injection, schedule: Q01DX009 (ip), vehicle: other 101 % of control | endpoint: median survival time, dose: 800.0 mg/kg/injection, schedule: Q01DX009 (ip), vehicle: other 101 % of control

COc1ccc(-n2cnnn2)cc1
inactive: [7] 101 % of control | [8] 106 % of control | [9] 112 % of control

Cc1cc2ncn(C(=O)Nc3ccccc3)c2cc1C
inactive: [1] 105 % of control | [2] 94 % of control | [3] 96 % of control

CCCCNC(=O)/C=C\C(=O)O
inactive: [7] 97 % of control | [8] 100 % of control | [9] 100 % of control

Cc1cc(C)[nH]c(=S)n1
inactive: [10] 100 % of control | [1] 96 % of control | [2] 96 % of control

O=c1[nH]c(=S)[nH]c2ncn(C3OC(CO)C(O)C3O)c12 (stereo unspecified)
inactive: [4] 102 % of control | [5] 100 % of control | [6] 102 % of control

COc1ccccc1C(O)(C(=O)OCCSC)c1ccccc1OC
inactive: endpoint: mean survival time, dose: 100.0 mg/kg/injection, schedule: Q04DX003 (ip), vehicle: saline 93 % of control | endpoint: mean survival time, dose: 200.0 mg/kg/injection, schedule: Q04DX003 (ip), vehicle: saline 94 % of control | endpoint: mean survival time, dose: 400.0 mg/kg/injection, schedule: Q04DX003 (ip), vehicle: saline 88 % of control

NN1CCOC1=O
inactive: endpoint: mean survival time, dose: 100.0 mg/kg/injection, schedule: Q01DX001 (ip), vehicle: saline with Tween-80 97 % of control | endpoint: mean survival time, dose: 200.0 mg/kg/injection, schedule: Q01DX001 (ip), vehicle: saline with Tween-80 100 % of control

Cc1cc(NC(C)CN(C)C)nc(/N=C(\N)Nc2ccc(Cl)c(Cl)c2)n1 (stereo unspecified)
inactive: [7] 96 % of control

O=C(c1cccnc1)C1Cc2ccccc2C1=O (stereo unspecified)
inactive: endpoint: mean survival time, dose: 100.0 mg/kg/injection, schedule: Q01DX009 (ip), vehicle: saline sonified 102 % of control | endpoint: mean survival time, dose: 200.0 mg/kg/injection, schedule: Q01DX009 (ip), vehicle: saline sonified 96 % of control | endpoint: mean survival time, dose: 400.0 mg/kg/injection, schedule: Q01DX009 (ip), vehicle: saline sonified 94 % of control

Brc1sccc1-c1cccc2ccccc12
inactive: endpoint: mean survival time, dose: 25.0 mg/kg/injection, schedule: Q04DX003 (ip), vehicle: saline with Tween-80 104 % of control | endpoint: mean survival time, dose: 50.0 mg/kg/injection, schedule: Q04DX003 (ip), vehicle: saline with Tween-80 96 % of control | [7] 104 % of control

Cc1nc2[nH]c(=O)n(O)c(=O)c2s1
inactive: endpoint: mean survival time, dose: 75.0 mg/kg/injection, schedule: Q01DX001 (ip), vehicle: other 102 % of control | endpoint: mean survival time, dose: 150.0 mg/kg/injection, schedule: Q01DX001 (ip), vehicle: other 100 % of control | endpoint: mean survival time, dose: 300.0 mg/kg/injection, schedule: Q01DX001 (ip), vehicle: other 86 % of control

O=S=Nc1ccc(S(=O)(=O)c2ccc(N=S=O)cc2)cc1
inactive: [10] 96 % of control | [7] 95 % of control | [2] 101 % of control | [8] 95 % of control

O=C(O)C(CSC(c1ccccc1)(c1ccccc1)c1ccccc1)NC(c1ccccc1)c1ccccc1 (stereo unspecified)
inactive: endpoint: mean survival time, dose: 50.0 mg/kg/injection, schedule: Q01DX009 (ip), vehicle: saline 101 % of control | endpoint: mean survival time, dose: 100.0 mg/kg/injection, schedule: Q01DX009 (ip), vehicle: saline 98 % of control | endpoint: mean survival time, dose: 200.0 mg/kg/injection, schedule: Q01DX009 (ip), vehicle: saline 101 % of control | endpoint: mean survival time, dose: 400.0 mg/kg/injection, schedule: Q01DX009 (ip), vehicle: saline 101 % of control
